Key:
[1] = ordinary relative humidity conditions; cited from earlier work
[2] = Storage of crystal forms in a closed or open bottle at RT, conversion to hemihydrate by absorption of atmospheric water; format: physicochemical; conditions: sample kept in an open bottle
Text: Another embodiment of the invention is a method for preparing a levofloxacin hemihydrate comprising storing one or more forms selected from the group consisting of Forms A, B, C, F, G, and H for an amount of time sufficient for the one or more forms to convert to a levofloxacin hemihydrate by the absorption of atomospheric water. For example, Forms A, B, C, F, G and H were converted to hemihydrate after 7-29 days of storing in a closed bottle at RT. The conversion to hemihydrate was faster (about 24 h) when keeping the sample in an open bottle.

[3] = Exposure of wet material to the air at RT covered with paper, polymorph of the sample; format: physicochemical
Protocol: The wet material was exposed to the air at RT covered with paper (for protection).
A first portion of the wet material was stirred in 5 v of acetonitrile at 75° C. for 2 h, then filtrated under vacuum. The polymorphism of the wet sample was Hemihydrate. A second portion of the wet material was exposed to the air at RT covered with paper (for protection).
After a few hours the polymorph of the wet samples was Hemihydrate.

C[C@H]1COc2c(N3CCN(C)CC3)c(F)cc3c(=O)c(C(=O)O)cn1c23 [form α, levofloxacin]
form obtained after rapid adsorption of water vapor [1]: monohydrate

C[C@H]1COc2c(N3CCN(C)CC3)c(F)cc3c(=O)c(C(=O)O)cn1c23 [Form A, levofloxacin]
time of conversion to hemihydrate [2]: about 24 h

C[C@H]1COc2c(N3CCN(C)CC3)c(F)cc3c(=O)c(C(=O)O)cn1c23 [Form γ, levofloxacin]
form obtained after rapid adsorption of water vapor [1]: hemihydrate

C[C@H]1COc2c(N3CCN(C)CC3)c(F)cc3c(=O)c(C(=O)O)cn1c23 [Form H, levofloxacin]
polymorph of the wet sample after exposure to the air ([3]; after 3, 6, 9 hours (Example 12)): Form G | polymorph of the wet sample after exposure to the air ([3]; after 24 hours (Example 12)): hemihydrate polymorph | polymorph of the wet sample after exposure to the air ([3]; after a few hours (Example 13)): Hemihydrate

Source: patent US7629458B2, “Preparation of levofloxacin and hemihydrate thereof” (Teva Pharmaceutical Industries Ltd., priority 2001, dated 2009)
